Test results: patent publication US10920191B2, “Methods of screening embryonic progenitor cell lines” (LINEAGE CELL THERAPEUTICS, INC., priority 2008, dated 2021)

How the values were obtained:
Assay type in all cases: cell-based, human
cell line Z2 = test: Differentiation of cell line Z2 with individual differentiation factors, Illumina microarray readout
From the text: (§1) To reduce variations in gene expression due to cell cycle artifacts, and to capture an early gene expression profile of the cells, upon being expanded to six well plates, on the day the cells reached confluence, the cells were placed in media with a reduction of serum to 0.5% in the case where the original serum concentration was >5%. In all other cases, serum and/or other growth factors was reduced to 10% of their original values. These quiescence conditions were imposed for five days and all cultures were re-fed two days prior to harvest to reduce feeding difference artifacts. So, by way of example, if the original media was DMEM medium with 10% FCS, then the quiescence synchronization media was DMEM with 0.5% FCS. Total RNA was extracted directly from cells growing in 6-well or 6 cm tissue culture plates using Qiagen Rneasy mini kits according to the manufacturer's instructions. RNA concentrations were measured using a Beckman DU530 or Nanodrop spectrophotometer and RNA quality determined by denaturing agarose gel electrophoresis or an Agilent 2100 bioanalyzer. Whole-genome expression analysis was carried out using Affymetrix Human Genome U133 Plus 2.0 GeneChip® system, Illumina Human-6 v1 and HumanRef-8 v1 Beadchips (Illumina 1), and Illumina Human-6 v2 Beadchips (Illumina 2), and RNA levels for certain genes were confirmed by quantitative PCR. For Illumina BeadArrays, total RNA was linearly amplified and biotin-labeled using Illumina TotalPrep kits (Ambion), and cRNA was quality controlled using an Agilent 2100 Bioanalyzer. cRNA was hybridized to Illumina BeadChips, processed, and read using a BeadStation array reader according to the manufacturer's instructions (Illumina). Relative Fluorescence Unit (RFU) values for all of the cell lines with common probe sets were quantile normalized.
The cell lines of the present invention 7SMOO7 (also designated ACTC298 and used at P18), C4.4 (also designated ACTC87 and used at P14), E44 (also designated ACTC170 and used at P18), E69 (also designated ACTC101 and used at P15), SK17 (also designated ACTC162 and used at P14), SK31 (also designated ACTC164 used at P15), SM35 (also designated ACTC260 used at P12), T36 (also designated ACTC198 used at P19), T43 (also designated ACTC120 used at P17), W11 (also designated ACTC197 used at P12), and Z2 (also designated ACTC255 used at P12), are cultured to five day quiescence as described herein or alternatively exposed to differentiation conditions of Differentiation Factor Protocol I in Table VIII. […] RNA was isolated as described herein and analyzed by Illumina microarrays. […]

cell line B16 = test: Differentiation of cell line B16 in gels containing crosslinked hyaluronic acid and gelatin; details: B16, hyaluronic acid/gelatin hydrogel, in the presence of retinoic acid
From the text: The cell line of the present invention designated B16 (ACTC59) that expresses the unique pattern of markers MKX (accession number NM_173576.1), CDH10 (accession number NM_006727.2), MEG3 (accession number NR_002766.1), SCUBE3 (accession number NM_152753.2), and distal HOX genes HOXA11 (accession number NM_000522.3), and HOXD11 (accession number NM_021192.2) when synchronized at quiescence as described herein by culturing 5 days at confluence in DMEM medium with 0.5% serum at passage 16-19 was differentiated in micromass conditions and in a hydrogel containing crosslinked hyaluronic acid and gelatin with supplemented growth factors from Table III as described in Table VIII under the headings “In vitro conditions to induce chondrogenenesis—Micromass Culture” and “Differentiation in gels containing crosslinked hyaluronic acid and gelatin” in the presence of TGFβ3 and retinoic acid as also described in Table VIII under the subheadings “Differentiation in Hydrogels Containing Crosslinked Hyaluronic Acid and Gelatin to Induce Chondrogenesis” and “Retinoic acid and EGF-Containing HyStem-CSS” respectively. […]

cell line SK17 = test: Differentiation of cell line SK17 with individual differentiation factors, Illumina microarray readout; details: SK17, after day 14, retinoic acid added (1.0 uM)
From the text: as §1, with “So, by way of example, if the original media was DMEM medium with 10% FCS, then the quiescence synchronization media was DMEM with 0.5% FCS. Total RNA was extracted directly from cells growing in 6-well or 6 cm tissue culture plates using Qiagen Rneasy mini kits according to the manufacturer's instructions.” left out, “Relative Fluorescence Unit (RFU) values for all of the cell lines with common probe sets were quantile normalized.” left out

W10 cell line = test: Differentiation of cell line W10, two weeks of culture with retinoic acid; details: 1.0 uM all trans retinoic acid
From the text: The HAND2 and SCARA5 positive cell line W10 (also known as ACTC196) whose most distal HOX gene expression was HOXA4, B7, which is described in U.S. patent application Ser. No. 12/504,630 filed on Jul. 16, 2009 and titled “Methods to Accelerate the Isolation of Novel Cell Strains from Pluripotent Stem Cells and Cells Obtained Thereby”, incorporated herein by reference in its entirety, and whose gene expression markers at 18-21 doublings of clonal expansion are disclosed in Table 1, was passaged to P14. […] cells for 14 days under conditions described as In vitro conditions to induce chondrogenenesis—Micromass Culture in Table VIII, that are expected to cause chondrogenic differentiation in cells capable of such differentiation. […] The presence of MYH11 was confirmed by immunocytochemistry.

[1] = Z2 (P12), 14 days, EGF 100 ng/ml, RFU >150 considered positive

## bFGF: growth factor used as individual differentiation factor
Cell line Z2; Z2, 14 days, 10 ng/mL bFGF
  BMP7 expression by microarray: 196 RFU

## recombinant human EGF: recombinant human EGF used as differentiation factor
Cell line Z2; [1]
  BMP2 expression by microarray: 1015 RFU
  BMP7 expression by microarray: 1084 RFU

## CC1=C(/C=C/C(C)=C/C=C/C(C)=C/C(=O)O)C(C)(C)CCC1 [retinoic acid, all-trans retinoic acid]
Cell line Z2; Z2, 14 days, 1.0 uM retinoic acid
  BMP7 expression by microarray: 271 RFU
Cell line B16
  NPPB (natriuretic peptide precursor B) expression: 11,851 RFUs
Cell line SK17
  MYH11 (smooth muscle marker) expression by microarray: 1715 RFUs
  renin (REN) expression by microarray: markedly upregulated
W10 cell line
  MYH11 expression: induction of MYH11
